Consider eleven compounds from ChEMBL document CHEMBL1128068, “Inhibitors of human collagenase: dipeptide mimetics with lactam and azalactam moieties at the position” (Bioorg Med Chem Lett, 1995).

SMILES strings stand for the structures. pIC50: −log10 of the molar value.

The experiment addresses T1, Interstitial collagenase (Homo sapiens, UniProt P03956).
T1 sequence (P03956 whole entry): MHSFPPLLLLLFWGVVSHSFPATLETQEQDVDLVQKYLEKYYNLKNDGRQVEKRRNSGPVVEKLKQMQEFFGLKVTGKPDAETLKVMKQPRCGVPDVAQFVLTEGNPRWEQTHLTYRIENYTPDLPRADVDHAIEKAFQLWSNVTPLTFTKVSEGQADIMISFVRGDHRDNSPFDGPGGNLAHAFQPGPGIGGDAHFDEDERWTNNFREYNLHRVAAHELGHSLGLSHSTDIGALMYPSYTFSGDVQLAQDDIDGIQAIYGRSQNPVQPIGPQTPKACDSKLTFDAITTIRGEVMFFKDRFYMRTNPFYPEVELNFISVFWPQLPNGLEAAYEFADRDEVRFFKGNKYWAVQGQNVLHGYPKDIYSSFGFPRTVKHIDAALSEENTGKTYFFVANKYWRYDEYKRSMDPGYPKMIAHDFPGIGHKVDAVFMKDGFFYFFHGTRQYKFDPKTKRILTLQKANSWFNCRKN
As to the kind of experiment: Inhibition of semi-purified human lung fibroblast collagenase.
`CC[C@H](N[C@@H](CC(C)C)C(=O)NC1CCCCNCCCCCNC1=O)P(=O)(O)O` (stereo partly specified): the negative-log IC50 (pIC50) (usually the IC50 on a negative log10 scale, so that one unit is a factor of ten) is 6.34.
For the compound `CC[C@H](N[C@@H](CC(C)C)C(=O)NC1CCCNCCCCCCNC1=O)P(=O)(O)O` (stereo partly specified), the pIC50 is 6.64.
As for `CC[C@H](N[C@@H](CC(C)C)C(=O)NC1CCCCNCCCCCCNC1=O)P(=O)(O)O` (stereo partly specified), the figure is 6.51.
The result for `CC[C@H](N[C@@H](CC(C)C)C(=O)NC1CCCCNCCCNC1=O)P(=O)(O)O` (stereo partly specified) reads 5.65; that for `CC[C@H](N[C@@H](CC(C)C)C(=O)NC1CCCCN(C)CCCCCNC1=O)P(=O)(O)O` (stereo partly specified), 6.29.
The result for `CC(C)CC(CC(=O)NO)C(=O)NC1CCCCCCCCCCNC1=O` (stereo unspecified) reads 7.59; that for `CC(C)C[C@@H](C(=O)NC1CCCCCCCCCCNC1=O)[C@@H](S)CC(=O)OC(C)C` (stereo partly specified), 7.29.
With `CC(C)CC(C(=O)NC1CCCCNCCCCCNC1=O)[C@@H](S)CC(=O)OC(C)C` (stereo partly specified), the pIC50 is 7.36. This pIC50 and that of the compound before are within 0.2 log units of each other.
The result for `CCC(N[C@@H](CC(C)C)C(=O)NC1CCCCCCCCCCNC1=O)P(=O)(O)O` (stereo partly specified) reads 6.74; that for `CC(C)CC(CC(=O)NO)C(=O)N[C@H]1CCCCNCCCCCNC1=O` (stereo in doubt; 17a), 7.92.
The result for `CC(C)CC(CC(=O)NO)C(=O)N[C@H]1CCCCNCCCCCNC1=O` (stereo in doubt; 17b) reads 7.09.
